Experimental findings from patent publication US12391679B2, “Benzamide-substituted bicyclic imidazo- and pyrazolo-fused -pyridine, -pyrimide, and -pyridazine compounds for treatment of inflammatory diseases” (ONCO3R Therapeutics BV, priority 2019, dated 2025) are described below.

The IC50 is the concentration that gives 50% inhibition.

Type in all cases: biochemical
Experiment [1] concerns the target T1, SIK2 (Homo sapiens, UniProt Q9H0K1).
T1 construct: purchased ThermoFisher Scientific PV4792
The experiment in a line: 33P radioactive kinase assay, SIK2. Further: AMARA 5 µM, 10 µM ATP. As to the method: (§1) The principle of the ^33P radioactive kinase assay consists in measuring the incorporated ^33P into the substrate AMARA peptide when phosphorylated by SIK1, SIK2 or SIK3 using [^33P]-g-ATP, which correlates with kinase activity.
(§2) The test compounds are prepared as a serial dilution of 10 point dose responses with 1/5 dilution steps in 100% DMSO starting from 2 mM highest concentration, diluted 1/20 in water and 5 μL is transferred to the assay plates (Greiner, Cat #651201).
(§3) 1% DMSO and 10 μM staurosporine final concentrations are used as negative and positive controls.
(§4) 11 μL of enzyme-substrate mixture is added on the assay plates. The reactions are started by adding 9 μL ATP mixture, consisting of non-labeled and ^33P-labeled ATP, on the assay plates.
(§5) The reactions are stopped by adding 25 μL phosphoric acid (150 mM) to the reactions.
(§6) The completely terminated kinase reactions are transferred using a harvester on pre-wetted UniFilter-96 plates (UniFilter-96 GF/B, PerkinElmer Inc., Cat #6005177).
(§7) After harvesting the kinase reactions, the filter plates are washed 6 times with phosphoric acid (75 mM). The back of the UniFilter-96 plates are sealed and 40 μL MicroScint-20 (PerkinElmer Inc., Cat #6013621) is added to each well. The top of the plates are sealed with TopSeal-A. Read-out is performed with a TopCount instrument (PerkinElmer Inc.).
(§8) Raw data are generated following the read-out performed on the TopCount, plotted to generate dose response curves to calculate percentage inhibition (PIN) and average IC50 for each SIK homologue which are reported in the table below.

Experiment [2] addresses T2, SIK1 (Homo sapiens, UniProt P57059).
T2 construct: purchased Carna Biosciences 02-131
The experiment in a line: 33P radioactive kinase assay, SIK1. As to the method:
as §1, §2, §3, §4, §5, §6, §7, §8

Experiment [3] concerns the target T3, SIK3 (Homo sapiens, UniProt Q9Y2K2).
T3 construct: purchased SignalChem S12-11G-100
As to the kind of experiment: 33P radioactive kinase assay, SIK3. Particulars: 33P radioactive assay; AMARA 7 μM; 15 μM ATP; 80 min; average IC50. As to the method:
as §1, §2, §3, §4, §5, §6, §7, §8

Experiment [4] deals with T3, SIK3. The experiment in a line: ADP-Glo kinase assay, SIK3. An outline of the steps:
(§9)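 Luminescent ADP-Glo readout of ADP formed. Enzyme-substrate mix with ATP, reaction 120 min at RT, then 40 min ATP depletion and 30 min detection. Controls were 1% DMSO (negative) and 10 μM staurosporine (positive), both final.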
Background: In ADP-Glo the light output rises with the ADP produced.

In experiment [5] the target is T1, SIK2. The experiment in a line: ADP-Glo kinase assay, SIK2. In outline:
as §9

Experiment [6] deals with T2, SIK1. The experiment in a line: ADP-Glo kinase assay, SIK1. In outline:
as §9

T1 sequence (Q9H0K1 whole entry): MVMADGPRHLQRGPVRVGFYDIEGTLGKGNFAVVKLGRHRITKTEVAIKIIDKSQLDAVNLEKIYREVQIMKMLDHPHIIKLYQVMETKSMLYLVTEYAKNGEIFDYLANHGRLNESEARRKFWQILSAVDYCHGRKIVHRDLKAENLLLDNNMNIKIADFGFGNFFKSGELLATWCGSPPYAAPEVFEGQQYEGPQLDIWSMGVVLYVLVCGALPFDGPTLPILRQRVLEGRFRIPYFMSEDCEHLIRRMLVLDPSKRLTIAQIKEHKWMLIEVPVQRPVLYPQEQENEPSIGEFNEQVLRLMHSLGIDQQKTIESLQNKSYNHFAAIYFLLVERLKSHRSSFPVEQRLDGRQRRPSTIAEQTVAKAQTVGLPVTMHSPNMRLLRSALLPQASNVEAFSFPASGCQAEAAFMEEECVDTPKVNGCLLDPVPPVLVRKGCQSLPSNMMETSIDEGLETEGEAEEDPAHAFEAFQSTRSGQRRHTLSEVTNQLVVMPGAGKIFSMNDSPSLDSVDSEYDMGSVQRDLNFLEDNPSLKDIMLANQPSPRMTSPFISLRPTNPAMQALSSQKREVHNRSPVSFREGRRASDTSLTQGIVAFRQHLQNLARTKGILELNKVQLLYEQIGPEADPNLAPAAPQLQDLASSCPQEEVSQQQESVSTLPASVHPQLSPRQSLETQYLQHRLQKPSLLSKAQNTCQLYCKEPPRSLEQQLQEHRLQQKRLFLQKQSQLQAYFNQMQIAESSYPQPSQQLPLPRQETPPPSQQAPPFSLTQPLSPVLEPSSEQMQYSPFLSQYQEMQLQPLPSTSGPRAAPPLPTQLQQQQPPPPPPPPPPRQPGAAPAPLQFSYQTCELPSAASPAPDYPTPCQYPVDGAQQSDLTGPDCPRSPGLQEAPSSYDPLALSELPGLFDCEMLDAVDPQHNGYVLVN
T3 sequence (Q9Y2K2 59-365 limits assumed): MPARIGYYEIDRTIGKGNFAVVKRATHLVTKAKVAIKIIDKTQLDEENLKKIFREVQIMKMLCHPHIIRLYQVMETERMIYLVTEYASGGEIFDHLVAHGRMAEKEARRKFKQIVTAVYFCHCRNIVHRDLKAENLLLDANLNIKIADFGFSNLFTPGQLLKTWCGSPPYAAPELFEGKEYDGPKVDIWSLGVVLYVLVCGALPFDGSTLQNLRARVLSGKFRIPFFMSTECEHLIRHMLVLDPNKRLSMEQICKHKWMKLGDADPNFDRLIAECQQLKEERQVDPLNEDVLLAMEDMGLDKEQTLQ
T2 sequence (P57059 whole entry): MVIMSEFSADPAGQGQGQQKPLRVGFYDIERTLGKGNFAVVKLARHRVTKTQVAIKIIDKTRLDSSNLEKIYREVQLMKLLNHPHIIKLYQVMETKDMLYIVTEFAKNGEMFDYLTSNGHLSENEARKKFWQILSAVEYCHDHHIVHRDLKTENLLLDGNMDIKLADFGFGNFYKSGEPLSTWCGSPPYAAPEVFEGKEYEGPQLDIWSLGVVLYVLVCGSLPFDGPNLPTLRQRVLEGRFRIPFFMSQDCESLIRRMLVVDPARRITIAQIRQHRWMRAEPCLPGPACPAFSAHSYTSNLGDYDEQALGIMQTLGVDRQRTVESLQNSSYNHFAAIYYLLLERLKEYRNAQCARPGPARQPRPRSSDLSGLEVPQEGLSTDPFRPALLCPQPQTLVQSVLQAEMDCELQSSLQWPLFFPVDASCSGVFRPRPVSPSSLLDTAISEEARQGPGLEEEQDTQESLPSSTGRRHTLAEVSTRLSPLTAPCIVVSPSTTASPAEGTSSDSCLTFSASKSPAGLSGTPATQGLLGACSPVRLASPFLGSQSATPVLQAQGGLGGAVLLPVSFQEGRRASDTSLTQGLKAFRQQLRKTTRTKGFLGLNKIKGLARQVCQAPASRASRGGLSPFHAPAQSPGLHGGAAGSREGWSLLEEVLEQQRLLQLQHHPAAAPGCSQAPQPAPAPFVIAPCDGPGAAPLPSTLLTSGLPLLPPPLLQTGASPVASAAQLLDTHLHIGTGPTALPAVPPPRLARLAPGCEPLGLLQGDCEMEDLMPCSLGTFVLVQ

As to `COc1cc(-n2cnc3cc(C4CCN(C)CC4)ccc32)cc(OC)c1C(=O)NCC(F)(F)F` [Cpd 1, 2,6-dimethoxy-4-[5-(1-methyl-4-piperidyl)benzimidazol-1-yl]-N-(2,2,2-trifluoroethyl)benzamide], the IC50 on SIK2 [1], on SIK1 [2] and at SIK3 [3] was greater than 500 nM in each case.
In the case of `COc1cc(-n2cnc3cc(C4CCN(C(=O)OC(C)(C)C)CC4)ccc32)cc(OC)c1C(=O)NCC(F)(F)F` [Cpd 2, tert-butyl 4-[1-[3,5-dimethoxy-4-(2,2,2-trifluoroethylcarbamoyl)phenyl]benzimidazol-5-yl]piperidine-1-carboxylate], the IC50 at SIK2 [1] was 100 to 500 nM; at SIK1 [2], greater than 500 nM; at SIK3 [3] it was 100 to 500 nM.
For the molecule `COc1cc(-n2cnc3cc(C4CCNCC4)ccc32)cc(OC)c1C(=O)NCC(F)(F)F` [Cpd 3, 2,6-dimethoxy-4-[5-(4-piperidyl)benzimidazol-1-yl]-N-(2,2,2-trifluoroethyl)benzamide], the IC50 at SIK2 [1] was 100 to 500 nM; on SIK1 [2] it was greater than 500 nM; on SIK3 [3] it was 100 to 500 nM.
Turning to `COc1cc(-n2cnc3cc(C4CCN(CC#N)CC4)ccc32)cc(OC)c1C(=O)NCC(F)(F)F` [Cpd 4, 4-[5-[1-(cyanomethyl)-4-piperidyl]benzimidazol-1-yl]-2,6-dimethoxy-N-(2,2,2-trifluoroethyl)benzamide], the IC50 on SIK2 [1] was greater than 500 nM; at SIK1 [2], greater than 500 nM; at SIK3 [3], 100 to 500 nM.
As for `COc1cc(-n2cnc3cc(C4CCOCC4)ccc32)cc(OC)c1C(=O)NCC(F)(F)F` [Cpd 5, 2,6-dimethoxy-4-(5-tetrahydropyran-4-ylbenzimidazol-1-yl)-N-(2,2,2-trifluoroethyl)benzamide], the IC50 at SIK2 [1] was greater than 500 nM; on SIK1 [2], greater than 500 nM; at SIK3 [3] it was 100 to 500 nM.
For the molecule `COc1cc(-n2cnc3cc(C4CCCN(C)C4)ccc32)cc(OC)c1C(=O)NCC(F)(F)F` (stereo not drawn) [Cpd 6, 2,6-dimethoxy-4-[5-(1-methyl-3-piperidyl)benzimidazol-1-yl]-N-(2,2,2-trifluoroethyl)benzamide], the IC50 on SIK2 [1] is greater than 500 nM; at SIK1 [2], greater than 500 nM; on SIK3 [3] it was 100 to 500 nM.
Consider `COc1cc(-n2cnc3cc(C4CCCN(C(=O)OC(C)(C)C)C4)ccc32)cc(OC)c1C(=O)NCC(F)(F)F` (stereo not drawn) [Cpd 7, tert-butyl 3-[1-[3,5-dimethoxy-4-(2,2,2-trifluoroethylcarbamoyl)phenyl]benzimidazol-5-yl]piperidine-1-carboxylate], for which the IC50 at SIK2 [1], at SIK1 [2] and on SIK3 [3] was greater than 500 nM in each case.
For `COc1cc(-n2cnc3cc(C4CCCNC4)ccc32)cc(OC)c1C(=O)NCC(F)(F)F` (stereo not drawn) [Cpd 8, 2,6-dimethoxy-4-[5-(3-piperidyl)benzimidazol-1-yl]-N-(2,2,2-trifluoroethyl)benzamide], the IC50 on SIK2 [1] was greater than 500 nM; on SIK1 [2] it was greater than 500 nM; on SIK3 [3] it was 100 to 500 nM.
With `COc1cc(-n2cnc3cc(C4CCCN(CC#N)C4)ccc32)cc(OC)c1C(=O)NCC(F)(F)F` (stereo not drawn) [Cpd 9, 4-[5-[1-(cyanomethyl)-3-piperidyl]benzimidazol-1-yl]-2,6-dimethoxy-N-(2,2,2-trifluoroethyl)benzamide], the IC50 at SIK2 [1] was greater than 500 nM; on SIK1 [2] it was greater than 500 nM; on SIK3 [3], 100 to 500 nM.
On to `COc1cc(-n2cnc3cc(C(C)(C)C#N)ccc32)cc(OC)c1C(=O)NCC(F)(F)F` [Cpd 10, 4-[5-(1-cyano-1-methyl-ethyl)benzimidazol-1-yl]-2,6-dimethoxy-N-(2,2,2-trifluoroethyl)benzamide], for which the IC50 on SIK2 [1] is greater than 500 nM; at SIK3 [4] it was 100 to 500 nM; at SIK2 [5], greater than 500 nM; against SIK1 [6] it was greater than 500 nM; on SIK1 [2], greater than 500 nM; on SIK3 [3], 100 to 500 nM.
On to `COc1cc(-n2cnc3cc(C(C)(C)C#N)ccc32)cc(OC)c1C(=O)NC1CC1` [Cpd 11, 4-[5-(1-cyano-1-methyl-ethyl)benzimidazol-1-yl]-N-cyclopropyl-2,6-dimethoxy-benzamide], for which the IC50 on SIK2 [1] is greater than 500 nM; against SIK3 [4], 100 to 500 nM; against SIK2 [5] it was greater than 500 nM; at SIK1 [6] it was greater than 500 nM; on SIK1 [2], greater than 500 nM; on SIK3 [3] it was greater than 500 nM.
Take `COc1cc(-n2cnc3cc(C(C)(C)C#N)ccc32)cc(OC(F)F)c1C(=O)NC1CC1` [Cpd 12, 4-[5-(1-cyano-1-methyl-ethyl)benzimidazol-1-yl]-N-cyclopropyl-2-(difluoromethoxy)-6-methoxy-benzamide]: the figures for the concentration for half-maximal inhibition (IC50) at SIK2 [1], on SIK1 [2] and at SIK3 [3] were greater than 500 nM, greater than 500 nM and 100 to 500 nM, respectively.
As for `COc1cc(-n2cnc3cc(C4(C#N)CCC4)ccc32)cc(OC)c1C(=O)NCC(F)(F)F` [Cpd 13, 4-[5-(1-cyanocyclobutyl)benzimidazol-1-yl]-2,6-dimethoxy-N-(2,2,2-trifluoroethyl)benzamide], the IC50 at SIK2 [1], at SIK1 [2] and at SIK3 [3] was greater than 500 nM throughout.
With `COc1cc(-n2cnc3cc(C4(C#N)CCC4)ccc32)cc(OC)c1C(=O)NC1CC1` [Cpd 14, 4-[5-(1-cyanocyclobutyl)benzimidazol-1-yl]-N-cyclopropyl-2,6-dimethoxy-benzamide], the IC50 at SIK2 [1], on SIK1 [2] and at SIK3 [3] was greater than 500 nM throughout.
With `COc1cc(-n2cnc3cc(C(C)C#N)ccc32)cc(OC)c1C(=O)NCC(F)(F)F` (stereo not drawn) [Cpd 15, 4-[5-(1-cyanoethyl)benzimidazol-1-yl]-2,6-dimethoxy-N-(2,2,2-trifluoroethyl)benzamide], the IC50 at SIK2 [1], at SIK1 [2] and at SIK3 [3] was greater than 500 nM throughout.
On to `COc1cc(-c2cnc3cc(C(C)(C)C#N)ccn23)cc(OC)c1C(=O)N1CC(F)(F)C1` [Cpd 18, 2-[3-[4-(3,3-difluoroazetidine-1-carbonyl)-3,5-dimethoxy-phenyl]imidazo[1,2-a]pyridin-7-yl]-2-methyl-propanenitrile], for which the IC50 was greater than 500 nM on SIK2 [1]; 10 to 100 nM against SIK3 [4]; greater than 500 nM at SIK2 [5]; greater than 500 nM on SIK1 [6]; greater than 500 nM at SIK1 [2]; 10 to 100 nM at SIK3 [3].
With `COc1cc(-c2cnc3cc(C4CCCN(C(=O)OC(C)(C)C)C4)ccn23)cc(OC)c1C(=O)NCC(F)(F)F` (stereo not drawn) [Cpd 21, tert-butyl 3-[3-[3,5-dimethoxy-4-(2,2,2-trifluoroethylcarbamoyl)phenyl]imidazo[1,2-a]pyridin-7-yl]piperidine-1-carboxylate], the IC50 at SIK2 [1] was 100 to 500 nM; on SIK1 [2], greater than 500 nM; at SIK3 [3], 10 to 100 nM.
For the molecule `COc1cc(-c2cnc3cc(C(C)(C)C(N)=O)ccn23)cc(OC)c1C(=O)NC1CC1` [Cpd 29, 4-[7-(2-amino-1,1-dimethyl-2-oxo-ethyl)imidazo[1,2-a]pyridin-3-yl]-N-cyclopropyl-2,6-dimethoxy-benzamide], the results for the IC50 at SIK2 [1], on SIK1 [2] and on SIK3 [3] were greater than 500 nM, greater than 500 nM and 10 to 100 nM, respectively.
In the case of `CCNC(=O)c1c(OC)cc(-c2cnc3cc(C(C)(C)C(N)=O)ccn23)cc1OC` [Cpd 31, 4-[7-(2-amino-1,1-dimethyl-2-oxo-ethyl)imidazo[1,2-a]pyridin-3-yl]-N-ethyl-2,6-dimethoxy-benzamide], the IC50 at SIK2 [1] is greater than 500 nM; on SIK1 [2], greater than 500 nM; on SIK3 [3], 100 to 500 nM.
